Results taken from US20210321645A1, “STABILIZER FOR PYRROLOQUINOLINE QUINONE, COMPOSITION COMPRISING THE SAME, AND METHOD OF STABILIZATION” (Mitsubishi Gas Chemical Company, Inc., priority 2018, published 2021).

Test: Accelerated storage test of beverages, BioPQQ recovery by HPLC
Assay type: physicochemical
Details: beverages stored at 60° C. (Table 5), in words
Method: Analysis conditions of pyrroloquinoline quinone disodium salt
HPLC Conditions: • Shimadzu LC-2010 • Column: YMC-Pack ODS-A • Detection wavelength: 259 nm • Mobile phase: 30 mM acetic acid-70 mM ammonium acetate • Column temperature: 40° C.
(Accelerated Storage Test)
The sample of Example 1 was stored under the conditions of 60° C. for 2 weeks, which are equivalent to those of room temperature for 2 years. When the stored sample was subjected to HPLC, 97% of BioPQQ was recovered.

stabilizing effect on BioPQQ: high stabilizing effect
Structure (SMILES): OC[C@@H](O)[C@@H](O)CO [Erythritol]
